Measurements taken from ChEMBL document CHEMBL1687864, “Carijodienone from the octocoral Carijoa multiflora. A spiropregnane-based steroid” (2011).
Values after ≈ are worked out from the molar mass of the structure shown.

Columns and labels:
Assay type in all cases: functional
Klebsiella pneumoniae = assay: Antibacterial activity against Klebsiella pneumoniae by broth macrodilution method
Bacillus cereus = assay: Antibacterial activity against Bacillus cereus by broth macrodilution method
Salmonella = assay: Antibacterial activity against Salmonella by broth macrodilution method
Proteus mirabilis = assay: Antibacterial activity against Proteus mirabilis by broth macrodilution method
Escherichia coli = assay: Antibacterial activity against Escherichia coli by broth macrodilution method
Staphylococcus aureus = assay: Antibacterial activity against Staphylococcus aureus by broth macrodilution method
Enterococcus faecalis = assay: Antibacterial activity against Enterococcus faecalis by broth macrodilution method

MIC (Klebsiella pneumoniae)	MIC (Bacillus cereus)	MIC (Salmonella)	MIC (Proteus mirabilis)	MIC (Escherichia coli)	MIC (Staphylococcus aureus)	MIC (Enterococcus faecalis)	SMILES
5 µg/mL (≈ 16.9 µM)	6 µg/mL (≈ 20.2 µM)	–	–	–	–	–	C=C[C@H]1CC[C@H]2[C@@H]3CC[C@@]4(C=CC(=O)C=C4C)[C@H]3CC[C@]12C [CARIJODIENONE]
> 40 µg/mL	> 40 µg/mL	> 40 µg/mL	> 40 µg/mL	> 40 µg/mL	> 40 µg/mL	> 40 µg/mL	C=C[C@H]1CC[C@H]2[C@@H]3CCC4=CC(=O)C=C[C@]4(C)[C@H]3CC[C@]12C
